Laboratory results reported in patent US10111896B2, “Composition comprising a combination of DNA methylation inhibitor and a vitamin D receptor agonist for the treatment of drug resistant cancer or for the prevention of tumor relapse” (INSERM (Institut National de la Sante et de la Recherche …, priority 2014, dated 2018).

How the values were obtained:
U937 cells = experiment: Myeloid differentiation, CD11b and CD14 expression by flow cytometry in AML cell lines; format: cell-based, human; conditions: 5-AZA 5 μM, INEC 10 nM or both, 72 hours
Method: (A) Structural formulas of 1-25 dihydroxyvitamin D3 (VD) and VDR agonist Inecalcitol. http://www.chemblink.com/products/163217-09-2.htm. (B-D) Hypomethylating agents synergize with VDR agonists to promote myeloid differentiation and VDR activity. (B) U937 cells were mock-treated or treated with 5-AZA (5 μM), INEC (10 nM) or both for 72 hours. CD11b and CD14 expression was evaluated by flow cytometry. Results are presented in fold increase compared to vehicle Histograms are mean±SEM (n≥10; *p<0.05, **p<0.01, ***p<0.001). (C) HL60 cells were mock-treated or treated with 5-AZA (5 μM), with Vitamin D (300 nM) or INEC (10 nM) for 16 hours. Granocyte differentiation genes (PRTN3 and NE) and monocyte differentiation genes (TREML2 and SERPINB8) were accessed by qPCR. Results are presented as mean±SEM. (D) U937 cells were mock-treated or treated with 5-AZA (5 μM), INEC (10 nM) or both for 16 hours. VDR activation was evaluated by immunoblot using anti-phospho-VDR specific antibodies. VDR antibodies were used to control protein loading. (E-G) Combined Hypomethylating agents/VDR agonists therapy impairs tumor growth. (E) HL60 cells were mock-treated or treated with 5-AZA (5 μM), with INEC (10 nM) or both for 16 hours. […] (F) Expression of cell cycle regulator genes p15, p21 and p27 was evaluated by qPCR. […] The p-value was determined using the log-rank test. […]

[1] = test system: VDR and VDR targeted genes (CAMP and CYP24A1) in HL60 cells; conditions: 6 hours
Method: (§1) (A) Schematic representation of the VDR promoter. 5′-CpG-3′ islands present in VDR promoter (region ranging from −1035 to −75+ bp relative to the exon 1a transcriptional start codon) represented by dashes. […] Cell viability was evaluated by ATP assay. Results are presented as mean±SEM (ns not significant, *p<0.05, **p<0.01, ***p<0.001). […] HL60 were mock-treated or treated with 5-AZA (5 μM) or Vitamin D ([…]; as positive control) for 6 hours. (E) VDR or VDR-target genes (CAMP and CYP24A1) expression was evaluated by qPCR. Results are presented as mean±SEM. […] Primary cells (n=3 patients) were mock-treated or treated with 5-AZA (5 μM) or inecalcitol (INEC; […]) or both for 6 hours. VDR or VDR-target genes (CAMP and CYP24A1) expression was evaluated by qPCR. Results are presented as mean±SEM.

VDR promoter [2] = experiment: Methylation-sensitive high resolution melting (MS-HRM) analysis on THP-1 cells; format: cell-based, human; conditions: 5-AZA 1 μM, 96 hours
Method: as §1

[3] = test system: VDR-/- MLL-ENL transformed cells; experiment: Cell viability by ATP assay, VDR-/- MLL-ENL transformed cells; format: cell-based, mouse; conditions: growing concentrations, 72 h
Method: as §1
(§2) Cells were seeded into 96-well plates, and then returned to the 37° C. incubator after the addition of different reactives or vehicle controls DMSO and ethanol if not otherwise stated. Celltiter Glo reagents (Promega) were added after 48 to 96 hours to determine cell viability by measuring ATP levels.

[4] = test system: VDR-target genes (CAMP and CYP24A1) in primary cells from AML patients; experiment: qPCR of VDR-target genes in leukemic cells from AML patients; format: cell-based, human; conditions: primary cells from AML patients (n=3); 5-AZA 5 μM, 6 hours
Method: as §1

[5] = test system: wild-type MLL-ENL transformed cells; experiment: Cell viability by ATP assay, wild-type MLL-ENL transformed cells; format: cell-based, mouse; conditions: growing concentrations, 72 h
Method: as §1, §2

VDR promoter [6] = experiment: VDR promoter methylation analysis (methylation specific PCR) in primary AML samples; format: cell-based, human; conditions: 5-AZA 1 μM, 96 hours, vs not treated
Method: as §1

U937 cells xenograft = experiment: Subcutaneous U937 tumor xenograft in athymic Nude mice; format: in vivo, mouse; conditions: 5-AZA 5 mg/kg i.p. five injections, INEC 20 μg per mice i.p. three times a week, vs control mice
Method: (B) U937 cells were mock-treated or treated with 5-AZA (5 μM), INEC (10 nM) or both for 72 hours. CD11b and CD14 expression was evaluated by flow cytometry. […] (C) HL60 cells were mock-treated or treated with 5-AZA (5 μM), with Vitamin D (300 nM) or INEC (10 nM) for 16 hours. Granocyte differentiation genes (PRTN3 and NE) and monocyte differentiation genes (TREML2 and SERPINB8) were accessed by qPCR. Results are presented as mean±SEM. (D) U937 cells were mock-treated or treated with 5-AZA (5 μM), INEC (10 nM) or both for 16 hours. VDR activation was evaluated by immunoblot using anti-phospho-VDR specific antibodies. VDR antibodies were used to control protein loading. […] (E) HL60 cells were mock-treated or treated with 5-AZA (5 μM), with INEC (10 nM) or both for 16 hours. Cell cycle analyses were performed by topro-3 labeling. Results are presented as mean±SEM. […] (F) Expression of cell cycle regulator genes p15, p21 and p27 was evaluated by qPCR. Results are presented as mean±SEM. (G) Kaplan-Meier plot of survival of mice treated with vehicle (PBS), 5-Acytidine (5 mg/kg intraperitoneally three times a week for five injections) and or INEC (20 μg per mice intraperitoneally, three time a week) after subcutaneous xenograft with U937 cells (n=8 tumors in each group). The p-value was determined using the log-rank test.
For tumor establishment, U937 or OCI-AML3 cells as indicated were mixed with Matrigel (BD Biosciences) (1:1, vol/vol) and injected subcutaneously (5×106/flank) into 10-week old female athymic Nude mice (Janvier laboratories, France). The mice were then injected i.p. with 5-Azacytidine (Celgene) (5 mg/kg on day 5, 7, 9, 11 and 13), Inecalcitol (Hybrigenics) (20 μg/day 3 times a week), and the combination of 5-Azacytidine and Inecalcitol or PBS as a vehicle control. The tumor growth was measured as previously described (Lepelletier 2007).

FLT3-ITD/NPM1 AML blasts [7] = experiment: Adoptive transfer of FLT3-ITD/NPM1 AML blasts and bone marrow cells in mice; format: in vivo, mouse
Excerpt: In agreement, biological as well as immunophenotypic markers of leukemia cells were normalized in INEC-treated animals (FIG. 6C).

AML cells = experiment: Dose-response studies of AML cells differentiation; format: cell-based; conditions: compared with VD
[8] = test system: β-catenin in OCI-AML3 cells; experiment: β-catenin expression by flow cytometry in OCI-AML3 cells; format: cell-based, human; conditions: INEC 10, 100 or 1000 nM, 48 hours
[9] = test system: FLT3-ITD-transformed bone marrow hematopoietic progenitors; experiment: Methylcellulose colony-forming and replating assay of FLT3-ITD transformed cells; format: cell-based, mouse
Method: (A) Inecalcitol decreases clonogenicity of FLT3-ITD of transformed cells. FLT3-ITD-transformed bone marrow hematopoietic progenitors were plated (30.000 cells/condition) in semisolid methylcellulose media containing cytokines (M-3434) containing or not INEC (10 nM) and scored following 7 to 10 days of culture. For re-plating assays 10-30.000 cells were plated (as indicated) in the presence or in the absence of INEC (10 nM) for each condition. Histograms represents numbers of colonies (mean±SEM of three independent experiments). Results are presented as mean±SEM of 4 independent experiments.
Colony formation by transformed or not mouse cells was examined with the use of Methocult medium (MethoCult GF M3434, StemCell Technologies). WT and VDR−/− cells infected were collected from BMT with oncogene or not and transferred to Methocult medium. Colonies were scored one week after plating for determination of the number of colonies. For serial plating cells were collected from methylcellulose, washed once in PBS, counted and replated in Methocult. For some experiments, 10 nM Inecalcitol (hybrigenics) was added to the culture medium.
LIC are a subset of leukemic cells in the bulk leukemia population bearing resistance to chemotherapy and therefore at the origin of relapses. Next we explored the efficacy of VDR agonist therapy in targeting LIC cells. To test this hypothesis we transduced bone marrow precursors from wild-type and VDR−/− mice with the FLT3-ITD construct. Cells were plated in semi-solid cultures containing INEC or vehicle as a control (FIG. 6A). […] To further examine is the INEC effect was reversible we divided 2nd replating INEC-treated cultures in two groups containing INEC or a vehicle.

FLT3-ITD/NPM1 AML blasts [10] = experiment: In vitro treatment of FLT3-ITD/NPM1 AML blasts, myeloid differentiation markers; format: cell-based

Structure (SMILES) | increase in myeloid differentiation (CD11b and CD14 expression), fold increase compared to vehicle (U937 cells) [fold] | expression of VDR targeted genes (CAMP and CYP24A1) ([1]; 5-AZA 5 μM or Vitamin D 1000 μM) | VDR expression, fold increase ([1]; 5-AZA 5 μM) [fold] | VDR promoter methylation (MS-HRM) (VDR promoter [2]) | cell survival [3] | VDR-target genes expression [4] | cell sensitivity (viability) [5] | VDR promoter methylation (VDR promoter [6]) | survival of xenografted mice (U937 cells xenograft) | tumor size / tumor growth (U937 cells xenograft) | leukemia development after passive transfer of BM cells from treated animals (FLT3-ITD/NPM1 AML blasts [7]; in comparison to mock-treated animals) | biological and immunophenotypic markers of leukemia cells in treated animals (FLT3-ITD/NPM1 AML blasts [7]; mouse, in vivo) | leukemia development in mice adoptively transferred with treated cells (FLT3-ITD/NPM1 AML blasts [7]; mouse, in vivo) | effectiveness to promote AML cells differentiation relative to VD (AML cells) [fold] | β-catenin pathway / expression [8] | CFC after INEC wash-out ([9]; 2nd replating INEC-treated cultures switched to vehicle) | decrease in clonogenic potential compared to vehicle-treated cells ([9]; INEC 10 nM in methylcellulose, first plating) [fold] | colonies at the 4th round of plating ([9]; INEC 10 nM, serial replating) | expression of myeloid differentiation markers (FLT3-ITD/NPM1 AML blasts [10])
Nc1ncn([C@@H]2O[C@H](CO)[C@@H](O)[C@H]2O)c(=O)n1 [5-AZA, 5-azacytidine] | 1.3 | induced the expression | 2 | revert VDR promoter methylation | not altered | induces VDR-target genes expression | sensitive | decrease in methylation | did not observe a significant effect | did not observe a significant effect | – | – | – | – | – | – | – | – | –
C[C@H](CC#CC(C)(C)O)[C@H]1CC[C@@H]2/C(=C/C=C3C[C@@H](O)C[C@H](O)C3)CCC[C@@]21C [INEC, 19-nor-14-epi-23-yne-1,25-(OH)2D3] | 4.5 | – | – | – | – | – | – | – | did not observe a significant effect | did not observe a significant effect | strongly delayed leukemia development | normalized | not able to develop leukemia | 1000 | inhibits β-cathenin pathway | reestablished CFC | 5 | virtually no colonies | increased expression
